# Tests used:
# Assay type in all cases: functional
# Streptococcus pneumoniae [1] = experiment: Antibacterial activity against Streptococcus pneumoniae OC9132
# Haemophilus influenzae = experiment: Antibacterial activity against Haemophilus influenzae OC4882
# Streptococcus pneumoniae [2] = experiment: Antibacterial activity against Mef(A) efflux pump containing Streptococcus pneumoniae OC4438
# Staphylococcus aureus = experiment: Antibacterial activity against Staphylococcus aureus OC4172
# Streptococcus pneumoniae [3] = experiment: Antibacterial activity against erm(B) ribosomal methylase gene containing Streptococcus pneumoniae OC4051
Structure (SMILES),MIC (Streptococcus pneumoniae [1]) [µg/mL],MIC (Haemophilus influenzae) [µg/mL],MIC (Streptococcus pneumoniae [2]) [µg/mL],MIC (Staphylococcus aureus) [µg/mL],MIC (Streptococcus pneumoniae [3]) [µg/mL]
CC[C@H]1OC(=O)[C@H](C)[C@@H](OC(=O)C(C)C)[C@H](C)[C@@H](O[C@@H]2O[C@H](C)C[C@H](N(C)C)[C@H]2O)[C@](C)(OC(=O)NC/C=C/c2ccc(-c3cccnn3)cc2)C[C@@H](C)C(=O)[C@H](C)[C@H]2NC(=O)O[C@@]21C,0.06,2,0.06,0.5,0.12
CC[C@H]1OC(=O)[C@H](C)[C@@H](OC(=O)N(CC)CC)[C@H](C)[C@@H](O[C@@H]2O[C@H](C)C[C@H](N(C)C)[C@H]2O)[C@](C)(OC(=O)NC/C=C/c2cnc3ccccc3c2)C[C@@H](C)C(=O)[C@H](C)[C@H]2NC(=O)O[C@@]21C,0.06,4,0.06,0.5,0.12
CC[C@H]1OC(=O)[C@H](C)[C@@H](OC(=O)N(CC)CC)[C@H](C)[C@@H](O[C@@H]2O[C@H](C)C[C@H](N(C)C)[C@H]2O)[C@](C)(OC(=O)NC/C=C/c2ccc(-c3cccnn3)cc2)C[C@@H](C)C(=O)[C@H](C)[C@H]2NC(=O)O[C@@]21C,0.06,4,0.12,0.5,0.25
CC[C@H]1OC(=O)[C@H](C)[C@@H](OC(=O)N(CC)CC)[C@H](C)[C@@H](O[C@@H]2O[C@H](C)C[C@H](N(C)C)[C@H]2O)[C@](C)(OC(=O)NC/C=C/c2ccc(-n3cccn3)cc2)C[C@@H](C)C(=O)[C@H](C)[C@H]2NC(=O)O[C@@]21C,0.12,4,0.12,1,0.5
CC[C@H]1OC(=O)[C@H](C)[C@@H](OC(=O)C(C)C)[C@H](C)[C@@H](O[C@@H]2O[C@H](C)C[C@H](N(C)C)[C@H]2O)[C@](C)(OC(=O)NC/C=C/c2cnc3ccccc3c2)C[C@@H](C)C(=O)[C@H](C)[C@H]2NC(=O)O[C@@]21C,0.03,4,0.03,0.25,0.06
CC[C@H]1OC(=O)[C@H](C)[C@@H](OC(=O)CC2CC2)[C@H](C)[C@@H](O[C@@H]2O[C@H](C)C[C@H](N(C)C)[C@H]2O)[C@](C)(OC(=O)NC/C=C/c2ccc(-c3ncccn3)cc2)C[C@@H](C)C(=O)[C@H](C)[C@H]2NC(=O)O[C@@]21C,0.06,16,0.12,1,0.12
CC[C@H]1OC(=O)[C@H](C)[C@@H](OC(=O)Cc2ccccn2)[C@H](C)[C@@H](O[C@@H]2O[C@H](C)C[C@H](N(C)C)[C@H]2O)[C@](C)(OC(=O)NC/C=C/c2ccc(-c3ncccn3)cc2)C[C@@H](C)C(=O)[C@H](C)[C@H]2NC(=O)O[C@@]21C,0.03,4,0.12,0.25,0.12
CC[C@H]1OC(=O)[C@H](C)[C@@H](OC(=O)Cc2cccnc2)[C@H](C)[C@@H](O[C@@H]2O[C@H](C)C[C@H](N(C)C)[C@H]2O)[C@](C)(OC(=O)NC/C=C/c2ccc(-c3ncccn3)cc2)C[C@@H](C)C(=O)[C@H](C)[C@H]2NC(=O)O[C@@]21C,0.03,4,0.06,0.12,0.12
CC[C@H]1OC(=O)[C@H](C)[C@@H](OC(=O)Nc2ccc(F)cc2)[C@H](C)[C@@H](O[C@@H]2O[C@H](C)C[C@H](N(C)C)[C@H]2O)[C@](C)(OC(=O)NC/C=C/c2ccc(-c3ncccn3)cc2)C[C@@H](C)C(=O)[C@H](C)[C@H]2NC(=O)O[C@@]21C,0.12,16,0.25,1,2
CC[C@H]1OC(=O)[C@H](C)[C@@H](OC(C)=O)[C@H](C)[C@@H](O[C@@H]2O[C@H](C)C[C@H](N(C)C)[C@H]2O)[C@](C)(OC(=O)NC/C=C/c2ccc(-c3ncccn3)cc2)C[C@@H](C)C(=O)[C@H](C)[C@H]2NC(=O)O[C@@]21C,0.03,16,0.12,1,0.5
CC[C@H]1OC(=O)[C@H](C)[C@@H](OC(=O)C(C)C)[C@H](C)[C@@H](O[C@@H]2O[C@H](C)C[C@H](N(C)C)[C@H]2O)[C@](C)(OC(=O)NC/C=C/c2ccc(-c3ncccn3)cc2)C[C@@H](C)C(=O)[C@H](C)[C@H]2NC(=O)O[C@@]21C,0.06,8,0.12,0.5,0.12
CCC(=O)O[C@H]1[C@H](C)[C@@H](O[C@@H]2O[C@H](C)C[C@H](N(C)C)[C@H]2O)[C@](C)(OC(=O)NC/C=C/c2ccc(-c3ncccn3)cc2)C[C@@H](C)C(=O)[C@H](C)[C@H]2NC(=O)O[C@]2(C)[C@@H](CC)OC(=O)[C@@H]1C,0.03,8,0.12,0.5,0.25
CC[C@H]1OC(=O)[C@H](C)[C@@H](OC(=O)Cc2cccnc2)[C@H](C)[C@@H](O[C@@H]2O[C@H](C)C[C@H](N(C)C)[C@H]2O)[C@](C)(OC(=O)NC/C=C/c2cnc3ccccc3c2)C[C@@H](C)C(=O)[C@H](C)[C@H]2NC(=O)O[C@@]21C,0.06,4,0.06,0.5,0.12
CC[C@H]1OC(=O)[C@H](C)[C@@H](OC(=O)C(C)C)[C@H](C)[C@@H](O[C@@H]2O[C@H](C)C[C@H](N(C)C)[C@H]2O)[C@](C)(OC(=O)NC/C=C/C=C/c2cccnc2)C[C@@H](C)C(=O)[C@H](C)[C@H]2NC(=O)O[C@@]21C,0.06,4,0.12,0.5,0.25
CC[C@H]1OC(=O)[C@H](C)C(=O)[C@H](C)[C@@H](O[C@@H]2O[C@H](C)C[C@H](N(C)C)[C@H]2O)[C@](C)(OC(=O)NC/C=C/c2ccc(-c3ncccn3)cc2)C[C@@H](C)C(=O)[C@H](C)[C@H]2NC(=O)O[C@@]21C,0.03,4,0.25,0.12,0.06
CC[C@H]1OC(=O)[C@H](C)[C@@H](OC(=O)c2cccnc2)[C@H](C)[C@@H](O[C@@H]2O[C@H](C)C[C@H](N(C)C)[C@H]2O)[C@](C)(OC(=O)NC/C=C/c2ccc(-c3ncccn3)cc2)C[C@@H](C)C(=O)[C@H](C)[C@H]2NC(=O)O[C@@]21C,0.06,16,0.25,0.5,4
CC[C@H]1OC(=O)[C@H](C)[C@@H](OC(=O)Cc2cccnc2)[C@H](C)[C@@H](O[C@@H]2O[C@H](C)C[C@H](N(C)C)[C@H]2O)[C@](C)(OC(=O)NC/C=C/C=C/c2cccnc2)C[C@@H](C)C(=O)[C@H](C)[C@H]2NC(=O)O[C@@]21C,0.03,2,0.12,0.5,0.12
CC[C@H]1OC(=O)[C@H](C)[C@@H](OC(=O)CCc2cccnc2)[C@H](C)[C@@H](O[C@@H]2O[C@H](C)C[C@H](N(C)C)[C@H]2O)[C@](C)(OC(=O)NC/C=C/c2ccc(-c3ncccn3)cc2)C[C@@H](C)C(=O)[C@H](C)[C@H]2NC(=O)O[C@@]21C,0.03,8,0.06,0.25,2
CC[C@H]1OC(=O)[C@H](C)[C@@H](OC(=O)Cc2ccncc2)[C@H](C)[C@@H](O[C@@H]2O[C@H](C)C[C@H](N(C)C)[C@H]2O)[C@](C)(OC(=O)NC/C=C/c2ccc(-c3ncccn3)cc2)C[C@@H](C)C(=O)[C@H](C)[C@H]2NC(=O)O[C@@]21C,0.03,4,0.12,0.25,0.25
CC[C@H]1OC(=O)[C@H](C)[C@@H](OC(=O)Cc2cccnc2)[C@H](C)[C@@H](O[C@@H]2O[C@H](C)C[C@H](N(C)C)[C@H]2O)[C@](C)(OC(=O)NC/C=C/c2cnc(C3CC3)nc2)C[C@@H](C)C(=O)[C@H](C)[C@H]2NC(=O)O[C@@]21C,0.06,2,0.25,0.5,0.25
CC[C@H]1OC(=O)[C@H](C)[C@@H](OC(=O)Nc2ccc(OC)cc2)[C@H](C)[C@@H](O[C@@H]2O[C@H](C)C[C@H](N(C)C)[C@H]2O)[C@](C)(OC(=O)NC/C=C/c2ccc(-c3ncccn3)cc2)C[C@@H](C)C(=O)[C@H](C)[C@H]2NC(=O)O[C@@]21C,0.12,16,0.25,1,4

# From ChEMBL document CHEMBL1138130, “Synthesis and antibacterial activity of 3-O-acyl-6-O-carbamoyl erythromycin A derivatives” (2006)
